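Compound exposure: 48 hours, 5 concentrations, 96-well plates. GI50 = concentration required for 50% inhibition of growth. TGI denotes the concentration required for complete inhibition of growth.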

What all share (assay): NCI-60 cell line screen, 48 h
The test system of test [1] is HCT-116 colon.
Test [2] relates to HOP-92 NSCLC.
For test [3], the system named is IGROV1 ovarian.
The subject of test [4] is K-562 leukemia.
In test [5] the test system is NCI-H460 lung.
In test [6] the test system is OVCAR-3 ovarian.
In test [7] the test system is OVCAR-4 ovarian.
For test [8], the system named is RXF 393 renal.
Test [9] concerns SK-MEL-5 melanoma.
Test [10] relates to SNB-75 CNS.

Regarding `COc1ccc2c(c1)C(=O)/C(=C/c1cccc(OCC(=O)c3ccccc3)c1)CC2`, the GI50 was 3.52 µM in test [1]; 4.19 µM in [3]; 1.98 µM in test [4]; 28.1 µM in test [5]; 18.3 µM in test [6]; 12.5 µM in test [7]. Also, the GI50 was 0.0502 µM in [8], 4.14 µM in test [9] and 42.4 µM in [10]. For the same compound, the TGI in test [1] is above 100 µM; in test [2] it was 0.792 µM; in [3] it was above 100 µM; in [4], 5.82 µM; in test [5] it was above 100 µM; in test [6], above 100 µM. For the same compound, the TGI was above 100 µM in test [7], 8.05 µM in test [8], 16.5 µM in [9] and above 100 µM in test [10].
For `O=c1cc(-c2cccs2)[nH]c2cc3c(cc12)OCO3`, the TGI in [1] is above 100 µM; in [2], above 100 µM; in [3] it was above 53.4 µM; in test [4], above 100 µM; in test [5] it was above 39.1 µM; in test [6], above 28.5 µM. Besides, the TGI is above 22.2 µM in [7], 8.38 µM in [8], above 31.9 µM in test [9] and 6.63 µM in test [10].
In the case of `CCC1(O)C(=O)OCc2c1cc1n(c2=O)Cc2cc3ccccc3nc2-1` (centres undefined), the TGI in test [1] was 0.614 µM; in [2] it was 23.9 µM; in test [3], 5.96 µM; in test [4], above 100 µM; in test [5], 10.7 µM; in test [6] it was 2.72 µM. The TGI is above 100 µM in test [7], 0.527 µM in test [8], 0.312 µM in test [9] and 0.19 µM in test [10].
For the compound `Cn1c(=O)c(N=Nc2c(=O)n(C)c(=O)n3c2[nH]c2ccccc23)c2[nH]c3ccccc3n2c1=O`, the TGI in test [1], in test [2], in test [3], in test [4], in test [5] and in test [6] was above 100 µM each time. Also, the TGI in test [7] was above 100 µM; in test [8], above 100 µM; in [9], above 100 µM; in [10] it was 91.6 µM.
As for `O=C1OCC2=C1C(c1cccc(F)c1)c1cc3c(cc1N2CCO)OCO3` (centres undefined), the GI50 in [1] was 1.53 µM; in [2] it was 3.1 µM; in [3], 4.19 µM; in [4] it was 0.353 µM; in [5] it was 2.08 µM; in test [6], 1.27 µM. Also, the GI50 was 46.8 µM in test [7], 1.51 µM in test [8], 1.26 µM in test [9] and 0.82 µM in test [10]. The TGI in [1], in test [2], in [3], in test [4], in [5] and in test [6] was above 50 µM each time. Besides, the TGI in test [7] was above 50 µM; in [8], 4.96 µM; in [9], above 50 µM; in [10], 2.8 µM.
As to `COC(=O)/C(=N\NC(C)(C)C)C(C(=O)OC)C(=O)C(=O)Nc1cc(Cl)ccc1Cl` (centres undefined), the TGI in test [1], in test [2], in [3], in test [4], in test [5] and in test [6] was above 100 µM throughout. The TGI in test [7], in test [8], in test [9] and in test [10] was above 100 µM throughout.
In the case of `Nc1ncnc2c1ncn2C1OC(CSCC(F)(F)F)C(O)C1O` (centres undefined), the TGI in test [1], in test [2], in test [3], in [4], in test [5] and in [6] was above 100 µM in each case. Further, the TGI in test [7], in test [8], in test [9] and in test [10] was above 100 µM throughout.
On to `CCOC(=O)Cc1nc2ccc3c(c2[nH]c1=O)C(=O)c1ccccc1C3=O`, for which the TGI in test [1], in test [2], in [3], in test [4], in test [5] and in [6] was above 100 µM each time. Moreover, the TGI is above 100 µM in test [7], 63.1 µM in test [8], above 100 µM in [9] and above 100 µM in test [10].
With `CC(CO)Nc1cc(-c2[nH]c3cccnc3c2-c2ccc(F)cc2)ccn1` (centres undefined), the GI50 in test [1] was 13.4 µM; in test [2], 2.74 µM; in [3], 6.77 µM; in test [4] it was 23.4 µM; in test [5], 8.16 µM; in test [6], 16.8 µM. The GI50 in test [7] was above 25 µM; in test [8] it was 12.5 µM; in [9], 10.3 µM; in test [10], 14.8 µM. Further, the TGI in [1], in test [2], in test [3], in test [4], in test [5] and in test [6] was above 25 µM each time. Besides, the TGI in [7], in test [8], in test [9] and in test [10] was above 25 µM each time.
Regarding `O=S(=O)(Nc1ccc(Br)cc1)c1ccc(-c2cnc(C3CC3)o2)cc1`, the GI50 in test [1] is 2.2 µM; in test [2], 3.39 µM; in [3], 2.57 µM; in [4], 0.41 µM; in test [5] it was 2.2 µM; in test [6], 1.05 µM. For the same compound, the GI50 in test [7] is 3.8 µM; in [8], 1.61 µM; in test [9], 2.49 µM; in test [10], 0.518 µM. In addition, the TGI in test [1] is 16 µM; in [2], 18.6 µM; in test [3] it was 15.8 µM; in test [4] it was above 100 µM; in test [5], 10.2 µM; in test [6], 3.96 µM. Moreover, the TGI was 18 µM in test [7], 7.6 µM in test [8], 11.6 µM in [9] and 3.35 µM in test [10].

(Values after PubChem BioAssay (NCI).)
